From ChEMBL document CHEMBL5321270, “Discovery of Pyrazolone Carbothioamide Derivatives as Inhibitors of the Pdr1-KIX Interaction for Combinational Treatment of Azole-Resistant Candidiasis” (J Med Chem, 2023)
Converted amounts (≈) assume the structure as drawn. The source made the active and inactive calls. The calls are words filed in the database; no cut-off is given here.

Tests used:
Nakaseomyces glabratus [1] = assay: Synergistic antifungal activity against fluconazole-resistant Candida glabrata 0161 assessed as fractional inhibitory concentration index incubated for 48 hrs in presence of A5 compound by checkerboard microdilution method; assay type: functional
Nakaseomyces glabratus [2] = assay: Antifungal activity against fluconazole-resistant Candida glabrata 0161 assessed as inhibition of fungal biofilm formation at 32 ug/ml incubated for 24 hrs by XXT reduction menadione assay; assay type: functional
Nakaseomyces glabratus [3] = assay: Antifungal activity against fluconazole-resistant Candida glabrata 0161 assessed as downregulation of CDR1 gene expression at 32 ug/ml by RT-PCR analysis; assay type: functional, organism-based; details: dose 32.0 µg/ml
Nakaseomyces glabratus [4] = assay: Synergistic antifungal activity against fluconazole-resistant Candida glabrata 0161 assessed as fractional inhibitory concentration index incubated for 48 hrs in presence of A8 compound by checkerboard microdilution method; assay type: functional
Nakaseomyces glabratus [5] = assay: Synergistic antifungal activity against fluconazole-resistant Candida glabrata 0161 assessed as fractional inhibitory concentration index incubated for 48 hrs in presence of A7 compound by checkerboard microdilution method; assay type: functional
Nakaseomyces glabratus [6] = assay: Antifungal activity against fluconazole-resistant Candida glabrata 0161 assessed as fungal growth inhibition incubated for 48 hrs by microplate reader assay; assay type: functional
Nakaseomyces glabratus [7] = assay: Antifungal activity against FLC-resistant Candida glabrata 0161 infected in cyclophosphamide immunosuppressed ICR mouse model assessed as inhibition of fungal growth in kidney at 40 mg/kg,ip administrated for 5 days; assay type: functional, organism-based; details: time 5.0 day
Nakaseomyces glabratus [8] = assay: Antifungal activity against fluconazole-resistant Candida glabrata 0161 assessed as downregulation of CDR2 gene expression at 32 ug/ml by RT-PCR analysis; assay type: functional, organism-based; details: dose 32.0 µg/ml
Nakaseomyces glabratus [9] = assay: Synergistic antifungal activity against fluconazole-resistant Candida glabrata 0161 assessed as fractional inhibitory concentration index incubated for 48 hrs in presence of A2 compound by checkerboard microdilution method; assay type: functional
Nakaseomyces glabratus [10] = assay: Synergistic antifungal activity against fluconazole-resistant Candida glabrata 0161 assessed as fractional inhibitory concentration index incubated for 48 hrs in presence of B5 compound by checkerboard microdilution method; assay type: functional
Nakaseomyces glabratus [11] = assay: Antifungal activity against fluconazole-resistant Candida glabrata 0161 assessed as inhibition of fungal mature biofilm formation at 0.25 to 64 ug/ml incubated for 24 hrs by XXT reduction menadione assay; assay type: functional, organism-based; details: dose 0.25-64 µg/ml
Nakaseomyces glabratus [12] = assay: Synergistic antifungal activity against fluconazole-resistant Candida glabrata 0161 assessed as fractional inhibitory concentration index incubated for 48 hrs in presence of A1 compound by checkerboard microdilution method; assay type: functional
Nakaseomyces glabratus [13] = assay: Synergistic antifungal activity against fluconazole-resistant Candida glabrata 0161 assessed as fractional inhibitory concentration index incubated for 48 hrs in presence of A14 compound by checkerboard microdilution method; assay type: functional
Nakaseomyces glabratus [14] = assay: Synergistic antifungal activity against fluconazole-resistant Candida glabrata 0161 assessed as fractional inhibitory concentration index incubated for 48 hrs in presence of B7 compound by checkerboard microdilution method; assay type: functional
Nakaseomyces glabratus [15] = assay: Synergistic antifungal activity against fluconazole-resistant Candida glabrata 0161 assessed as fractional inhibitory concentration index incubated for 48 hrs in presence of B3 compound by checkerboard microdilution method; assay type: functional
Nakaseomyces glabratus [16] = assay: Synergistic antifungal activity against fluconazole-resistant Candida glabrata 0161 assessed as fractional inhibitory concentration index incubated for 48 hrs in presence of B8 compound by checkerboard microdilution method; assay type: functional
Nakaseomyces glabratus [17] = assay: Antifungal activity against FLC-resistant Candida glabrata 0161 infected in cyclophosphamide immunosuppressed ICR mouse model assessed as inhibition of fungal growth in kidney at 5 mg/kg,ip administrated for 5 days; assay type: functional, organism-based; details: time 5.0 day
Nakaseomyces glabratus [18] = assay: Synergistic antifungal activity against fluconazole-resistant Candida glabrata 0161 assessed as fractional inhibitory concentration index incubated for 48 hrs in presence of A13 compound by checkerboard microdilution method; assay type: functional
Nakaseomyces glabratus [19] = assay: Synergistic antifungal activity against fluconazole-resistant Candida glabrata 0161 assessed as fractional inhibitory concentration index incubated for 48 hrs in presence of A10 compound by checkerboard microdilution method; assay type: functional
Nakaseomyces glabratus [20] = assay: Synergistic antifungal activity against fluconazole-resistant Candida glabrata 0161 assessed as fractional inhibitory concentration index incubated for 48 hrs in presence of B6 compound by checkerboard microdilution method; assay type: functional
Nakaseomyces glabratus [21] = assay: Synergistic antifungal activity against fluconazole-resistant Candida glabrata 0161 assessed as fractional inhibitory concentration index incubated for 48 hrs in presence of A9 compound by checkerboard microdilution method; assay type: functional
Nakaseomyces glabratus [22] = assay: Synergistic antifungal activity against fluconazole-resistant Candida glabrata 0161 assessed as fractional inhibitory concentration index incubated for 48 hrs in presence of B2 compound by checkerboard microdilution method; assay type: functional
Nakaseomyces glabratus [23] = assay: Synergistic antifungal activity against fluconazole-resistant Candida glabrata 0161 assessed as fractional inhibitory concentration index incubated for 48 hrs in presence of B4 compound by checkerboard microdilution method; assay type: functional
Nakaseomyces glabratus [24] = assay: Synergistic antifungal activity against fluconazole-resistant Candida glabrata 0161 assessed as inhibition of fungal biofilm formation at 4 ug/ml incubated for 24 hrs in presence of compound B8 by XXT reduction menadione assay; assay type: functional
Nakaseomyces glabratus [25] = assay: Antifungal activity against fluconazole-resistant Candida glabrata 0161 assessed as downregulation of ERG11 gene expression at 32 ug/ml by RT-PCR analysis; assay type: functional, organism-based; details: dose 32.0 µg/ml
Nakaseomyces glabratus [26] = assay: Antifungal activity against fluconazole-resistant Candida glabrata 0161 assessed as fungal growth inhibition at 16 ug/ml incubated for 48 hrs by time-growth curve assay; assay type: functional, organism-based; details: dose 16.0 µg/ml
Nakaseomyces glabratus [27] = assay: Antifungal activity against FLC-resistant Candida glabrata 0161 infected in cyclophosphamide immunosuppressed ICR mouse model assessed as pathological change in kidney at 5 mg/kg,ip administrated for 5 days by Hematoxylin and eosin staining based analysis; assay type: functional, organism-based; details: time 5.0 day
Nakaseomyces glabratus [28] = assay: Synergistic antifungal activity against fluconazole-resistant Candida glabrata 0161 assessed as fractional inhibitory concentration index incubated for 48 hrs in presence of A6 compound by checkerboard microdilution method; assay type: functional
Nakaseomyces glabratus [29] = assay: Synergistic antifungal activity against fluconazole-resistant Candida glabrata 0161 assessed as fractional inhibitory concentration index incubated for 48 hrs in presence of A3 compound by checkerboard microdilution method; assay type: functional
Nakaseomyces glabratus [30] = assay: Synergistic antifungal activity against fluconazole-resistant Candida glabrata 0161 assessed as fractional inhibitory concentration index incubated for 48 hrs in presence of A4 compound by checkerboard microdilution method; assay type: functional
Nakaseomyces glabratus [31] = assay: Antifungal activity against fluconazole-resistant Candida glabrata 0161 assessed as downregulation of PDR1 gene expression at 32 ug/ml by RT-PCR analysis; assay type: functional, organism-based; details: dose 32.0 µg/ml
Nakaseomyces glabratus [32] = assay: Synergistic antifungal activity against fluconazole-resistant Candida glabrata 0161 assessed as fractional inhibitory concentration index incubated for 48 hrs in presence of B1 compound by checkerboard microdilution method; assay type: functional
Nakaseomyces glabratus [33] = assay: Synergistic antifungal activity against fluconazole-resistant Candida glabrata 0161 assessed as fractional inhibitory concentration index incubated for 48 hrs in presence of A12 compound by checkerboard microdilution method; assay type: functional
Nakaseomyces glabratus [34] = assay: Synergistic antifungal activity against fluconazole-resistant Candida glabrata 0161 assessed as fractional inhibitory concentration index incubated for 48 hrs in presence of A11 compound by checkerboard microdilution method; assay type: functional

Question: With OC(Cn1cncn1)(Cn1cncn1)c1ccc(F)cc1F [FLUCONAZOLE] as the compound, how does the “fractional inhibitory concentration index (FICI)” value (Nakaseomyces glabratus [1]) read?
Answer: Its value is 0.56.

Question: And the inhibition at 32 µg/mL (Nakaseomyces glabratus [2])?
Answer: Its inhibition at 32 µg/mL is 39%.

Question: What about the Activity (Nakaseomyces glabratus [3]) of the same compound?
Answer: The Activity was “inactive”.

Question: What about the “fractional inhibitory concentration index (FICI)” value (Nakaseomyces glabratus [4]) of the same compound?
Answer: The value was 0.53.

Question: And the “fractional inhibitory concentration index (FICI)” value (Nakaseomyces glabratus [5])?
Answer: Its value is 0.38.

Question: What about the MIC (Nakaseomyces glabratus [6]) of the same compound?
Answer: Its MIC is 32 µg/mL (≈ 104 µM).

Question: And the Activity (Nakaseomyces glabratus [7])?
Answer: Its Activity is “Active”.

Question: And the Activity (Nakaseomyces glabratus [8])?
Answer: The Activity was “inactive”.

Question: And the “fractional inhibitory concentration index (FICI)” value (Nakaseomyces glabratus [9])?
Answer: Its value is 0.56.

Question: And the “fractional inhibitory concentration index (FICI)” value (Nakaseomyces glabratus [10])?
Answer: The value was 0.76.

Question: What about the inhibition (Nakaseomyces glabratus [11]) of the same compound?
Answer: The inhibition was “Active”.

Question: And the “fractional inhibitory concentration index (FICI)” value (Nakaseomyces glabratus [12])?
Answer: Its value is 0.31.

Question: What about the “fractional inhibitory concentration index (FICI)” value (Nakaseomyces glabratus [13]) of the same compound?
Answer: Its value is 0.56.

Question: What about the “fractional inhibitory concentration index (FICI)” value (Nakaseomyces glabratus [14]) of the same compound?
Answer: Its value is 0.52.

Question: And the “fractional inhibitory concentration index (FICI)” value (Nakaseomyces glabratus [15])?
Answer: Its value is 0.31.

Question: And the “fractional inhibitory concentration index (FICI)” value (Nakaseomyces glabratus [16])?
Answer: The value was 0.28.

Question: And the Activity (Nakaseomyces glabratus [17])?
Answer: The Activity was “inactive”.

Question: What about the “fractional inhibitory concentration index (FICI)” value (Nakaseomyces glabratus [18]) of the same compound?
Answer: Its value is 0.53.

Question: What about the “fractional inhibitory concentration index (FICI)” value (Nakaseomyces glabratus [19]) of the same compound?
Answer: Its value is 0.53.

Question: What about the “fractional inhibitory concentration index (FICI)” value (Nakaseomyces glabratus [20]) of the same compound?
Answer: The value was 0.53.

Question: What about the “fractional inhibitory concentration index (FICI)” value (Nakaseomyces glabratus [21]) of the same compound?
Answer: Its value is 0.53.

Question: And the “fractional inhibitory concentration index (FICI)” value (Nakaseomyces glabratus [22])?
Answer: Its value is 0.29.

Question: What about the “fractional inhibitory concentration index (FICI)” value (Nakaseomyces glabratus [23]) of the same compound?
Answer: The value was 0.31.

Question: What about the inhibition at 4 µg/mL (Nakaseomyces glabratus [24]) of the same compound?
Answer: The inhibition at 4 µg/mL was 33%.

Question: What about the Activity (Nakaseomyces glabratus [25]) of the same compound?
Answer: The Activity was “inactive”.

Question: And the Activity (Nakaseomyces glabratus [26])?
Answer: The Activity was “inactive”.

Question: And the Activity (Nakaseomyces glabratus [27])?
Answer: The Activity was “Active”.

Question: What about the “fractional inhibitory concentration index (FICI)” value (Nakaseomyces glabratus [28]) of the same compound?
Answer: Its value is 0.25.

Question: What about the “fractional inhibitory concentration index (FICI)” value (Nakaseomyces glabratus [29]) of the same compound?
Answer: Its value is 0.56.

Question: What about the “fractional inhibitory concentration index (FICI)” value (Nakaseomyces glabratus [30]) of the same compound?
Answer: Its value is 0.53.

Question: And the Activity (Nakaseomyces glabratus [31])?
Answer: Its Activity is “inactive”.

Question: What about the “fractional inhibitory concentration index (FICI)” value (Nakaseomyces glabratus [32]) of the same compound?
Answer: Its value is 0.53.

Question: What about the “fractional inhibitory concentration index (FICI)” value (Nakaseomyces glabratus [33]) of the same compound?
Answer: The value was 0.53.

Question: What about the “fractional inhibitory concentration index (FICI)” value (Nakaseomyces glabratus [34]) of the same compound?
Answer: Its value is 0.52.
